Assay results as given in ChEMBL document CHEMBL5150075 (J Med Chem, 2022).
Calls of active or inactive are those of the source. No cut-off for these calls is given here.

How the values were obtained:
[1] = target: T1, Tubulin (Homo sapiens) (UniProt P68371+Q9H4B7+P0DPH7+P68366+Q13509+Q71U36+P04350+Q3ZCM7+P07437+P68363+Q9BQE3+Q6PEY2+Q13885+Q9BVA1+Q9BUF5); assay: Disruption of microtubule network in human DU-145 cells assessed as reduction in alpha tubulin expression by Western blot analysis; format: cell-based; details: dose 0.03-0.3 µM
[2] = test system: DU-145; assay: Induction of apoptosis in human DU-145 cells assessed as increase in cleaved caspase 3 level at 0.003 to 0.3 uM incubated for 48 hrs by Western blot analysis; format: functional, cell-based; details: dose 0.003-0.3 µM
[3] = Cmax in Kunming mouse at 20 mg/kg, po by LC-MS/MS analysis; format: ADME, organism-based; set-up: dose 20 mg/kg, route po; details: in vivo
[4] = Mutagenicity in Salmonella typhimurium TA-98 at 0.5 to 500 ug per plate incubated for 72 hrs in presence or absence of S9 fraction by Ames test; format: toxicity, Salmonella enterica subsp. enterica serovar Typhimurium; details: in vivo, dose 0.5-500 µg
[5] = target: T1, Tubulin (Homo sapiens); assay: Inhibition of tubulin polymerization in human DU-145 cells assessed as inhibition of tubulin assembly at 0.1 uM incubated for 16 hrs by Hoechst staining based confocal microscopy analysis; format: cell-based
[6] = Stability in monkey liver microsomes assessed as half life incubated in presence of NADPH by LC-MS/MS analysis; format: ADME, Macaca mulatta, Microsome; details: rhesus monkey
[7] = test system: DU-145; assay: Induction of apoptosis in human DU-145 cells assessed as live cells at 0.03 uM incubated for 48 hrs by Annexin V-FITC/PI staining based flow cytometry analysis (reference value: 94.94%); format: functional
[8] = Toxicity in specific pathogen-free Kunming mouse assessed as reduction in body weight at 10 mg/kg, po administered once daily and measured for 7 days; format: organism-based; details: in vivo, 168 h, time 7 day
[9] = test system: A549; assay: Antiproliferative activity against paclitaxel-resistant human A549 cells assessed as inhibition of cell growth incubated for 72 hrs by MTT assay; format: functional, cell-based; details: A549, 72 h
[10] = Resistance index, ratio of IC50 for antiproliferative activity against paclitaxel-resistant human MCF7R cells to IC50 for antiproliferative activity against human MCF7 cells; format: functional
[11] = target: L-type calcium channel alpha-1c/beta-2/alpha2delta-1 (Homo sapiens, UniProt P54289+Q08289+Q13936); assay: Inhibition of human alpha1c/beta2a/alpha2delta1 Cav1.2 expressed in HEK293 cells assessed as effect on calcium flux by FLIPR analysis; format: toxicity, cell-based
[12] = Toxicity in po dosed ICR mouse assessed as maximum tolerated dose measured on day 14; format: organism-based; details: in vivo, time 14 day
[13] = test system: DU-145; assay: Antiproliferative activity against human DU-145 cells assessed as inhibition of cell growth incubated for 72 hrs by real-time cell analysis; format: functional, cell-based; details: DU-145, 72 h
[14] = Selectivity index, ratio of IC50 for cytotoxicity against African green monkey Vero cells to IC50 for antiproliferative activity against human DU-145 cells; format: toxicity, cell-based; details: Vero cells and DU-145 cells, read-out: Ratio IC50
[15] = target: T1, Tubulin (Homo sapiens); assay: Disruption of microtubule network in human DU-145 cells assessed as cell shrinkage at 0.1 uM incubated for 16 hrs by Hoechst staining based confocal microscopy analysis
[16] = test system: MCF7R; assay: Antiproliferative activity against paclitaxel-resistant human MCF7R cells assessed as inhibition of cell growth incubated for 72 hrs by MTT assay; format: functional, cell-based; details: read-out: IC50
[17] = Clearance in Kunming mouse at 2 mg/kg, iv by LC-MS/MS analysis; format: ADME, organism-based; details: in vivo
[18] = test system: NCI-H1299; assay: Antitumor activity against human NCI-H1299 cells xenografted in BALB/c nude mouse assessed as suppression of tumor growth at 10 mg/kg, po administered once daily and measured twice a week relative to control; format: functional
[19] = test system: NCI-H460; assay: cells; details: Homo sapiens, NCI-H460, 72 h
Description: Antiproliferative activity against human NCI-H460 cells assessed as inhibition of cell growth incubated for 72 hrs by MTT assay

[20] = target: Voltage-gated inwardly rectifying potassium channel KCNH2 (Homo sapiens, UniProt Q12809); assay: Inhibition of hERG expressed in CHO cells by whole cell patch clamp method; format: toxicity, cell-based
[21] = test system: HUVEC; assay: Anti-angiogenesis activity against HUVEC cells assessed as inhibition of cell growth incubated for 72 hrs by MTT assay; format: functional, cell-based; details: Homo sapiens
[22] = test system: DU-145; assay: Antitumor activity against human DU-145 cells xenografted in BALB/c nude mouse assessed as tumor growth inhibition at 5 mg/kg, po administered once daily and measured twice a week relative to control; format: functional; details: read-out: TGI
[23] = test system: DU-145; assay: Induction of apoptosis in human DU-145 cells assessed as early apoptotic cells at 0.1 uM incubated for 48 hrs by Annexin V-FITC/PI staining based flow cytometry analysis (reference value: 1.97%); format: functional
[24] = test system: HCT-116; assay: cells; details: Homo sapiens, HCT-116, 72 h
Description: Antiproliferative activity against human HCT-116 cells assessed as inhibition of cell growth incubated for 72 hrs by MTT assay

[25] = Mutagenicity in Salmonella typhimurium TA-102 at 0.5 to 500 ug per plate incubated for 72 hrs in presence or absence of S9 fraction by Ames test; format: toxicity, Salmonella enterica subsp. enterica serovar Typhimurium; details: in vivo, dose 0.5-500 µg
[26] = Toxicity in BALB/c nude mouse xenografted with human DU-145 cells assessed as reduction in body weight at 10 mg/kg, po administered once daily and measured twice a week; format: organism-based; set-up: scale not given: the % may be the effect or the level left; details: in vivo
[27] = test system: DU-145; assay: Induction of apoptosis in human DU-145 cells assessed as live cells at 0.3 uM incubated for 48 hrs by Annexin V-FITC/PI staining based flow cytometry analysis (reference value: 94.94%); format: functional
[28] = test system: HepG2; assay: cells; details: Homo sapiens, HepG2, 72 h
[29] = test system: DU-145; assay: Antiproliferative activity against human DU-145 cells assessed as inhibition of cell growth incubated for 72 hrs by MTT assay; format: functional, cell-based; details: DU-145, 72 h
[30] = test system: DU-145; assay: Induction of apoptosis in human DU-145 cells assessed as dead cells at 0.1 uM incubated for 48 hrs by Annexin V-FITC/PI staining based flow cytometry analysis (reference value: 1.05%); format: functional
[31] = test system: DU-145; assay: Induction of G2/M phase cell cycle arrest in human DU-145 cells assessed as increase in cyclin B1 expression at 0.03 to 0.3 uM measured after 12 hrs by Western blot analysis; format: functional, cell-based; details: dose 0.03-0.3 µM
[32] = Stability in rat liver microsomes assessed as half life incubated in presence of NADPH by LC-MS/MS analysis; format: ADME, Microsome
[33] = AUC (0 to t) in Kunming mouse at 2 mg/kg, iv by LC-MS/MS analysis; format: ADME, organism-based; set-up: dose 2 mg/kg, route iv; details: in vivo
[34] = Stability in mouse liver microsomes assessed as half life incubated in presence of NADPH by LC-MS/MS analysis; format: ADME, Microsome
[35] = test system: DU-145; assay: Induction of apoptosis in human DU-145 cells assessed as early apoptotic cells at 0.3 uM incubated for 48 hrs by Annexin V-FITC/PI staining based flow cytometry analysis (reference value: 1.97%); format: functional
[36] = test system: NCI-H1437; assay: Antiproliferative activity against human NCI-H1437 cells assessed as inhibition of cell growth incubated for 72 hrs by MTT assay; format: functional, cell-based; details: NCI-H1437, 72 h
[37] = test system: DU-145; assay: Induction of apoptosis in human DU-145 cells assessed as late apoptotic cells at 0.03 uM incubated for 48 hrs by Annexin V-FITC/PI staining based flow cytometry analysis (reference value: 2.05%); format: functional

L-type calcium channel alpha-1c/beta-2/alpha2delta-1, sequence (P54289 25-956 limits assumed): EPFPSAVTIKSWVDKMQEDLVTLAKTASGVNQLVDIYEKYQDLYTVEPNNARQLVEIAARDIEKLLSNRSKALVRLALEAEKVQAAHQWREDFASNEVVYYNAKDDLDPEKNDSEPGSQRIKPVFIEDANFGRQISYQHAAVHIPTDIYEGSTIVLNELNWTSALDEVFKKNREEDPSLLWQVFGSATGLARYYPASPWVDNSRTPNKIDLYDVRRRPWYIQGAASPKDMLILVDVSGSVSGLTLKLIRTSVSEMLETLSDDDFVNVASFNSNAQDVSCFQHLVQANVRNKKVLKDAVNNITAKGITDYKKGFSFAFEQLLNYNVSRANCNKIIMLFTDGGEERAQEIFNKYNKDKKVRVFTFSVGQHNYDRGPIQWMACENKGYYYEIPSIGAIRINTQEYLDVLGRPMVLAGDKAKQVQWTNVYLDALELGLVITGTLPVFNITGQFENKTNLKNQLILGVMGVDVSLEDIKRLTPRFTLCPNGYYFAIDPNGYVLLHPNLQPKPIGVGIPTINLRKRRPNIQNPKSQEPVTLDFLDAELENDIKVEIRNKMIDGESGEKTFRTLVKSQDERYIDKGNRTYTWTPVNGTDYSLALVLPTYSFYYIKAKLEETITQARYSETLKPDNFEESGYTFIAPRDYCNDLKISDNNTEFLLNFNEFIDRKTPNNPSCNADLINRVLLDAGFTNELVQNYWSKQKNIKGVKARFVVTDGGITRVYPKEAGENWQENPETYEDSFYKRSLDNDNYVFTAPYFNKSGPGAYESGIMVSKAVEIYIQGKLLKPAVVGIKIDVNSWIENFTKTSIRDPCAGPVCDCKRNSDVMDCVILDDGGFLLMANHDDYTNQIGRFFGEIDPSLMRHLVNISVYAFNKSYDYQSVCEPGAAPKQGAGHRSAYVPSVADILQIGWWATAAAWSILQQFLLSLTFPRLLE
L-type calcium channel alpha-1c/beta-2/alpha2delta-1, sequence (P54289 957-1103 limits assumed): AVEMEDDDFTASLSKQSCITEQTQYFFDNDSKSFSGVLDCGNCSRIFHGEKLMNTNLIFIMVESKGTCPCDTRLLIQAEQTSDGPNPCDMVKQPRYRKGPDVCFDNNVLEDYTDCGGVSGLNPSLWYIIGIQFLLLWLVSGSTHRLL
L-type calcium channel alpha-1c/beta-2/alpha2delta-1, sequence (Q08289 whole entry): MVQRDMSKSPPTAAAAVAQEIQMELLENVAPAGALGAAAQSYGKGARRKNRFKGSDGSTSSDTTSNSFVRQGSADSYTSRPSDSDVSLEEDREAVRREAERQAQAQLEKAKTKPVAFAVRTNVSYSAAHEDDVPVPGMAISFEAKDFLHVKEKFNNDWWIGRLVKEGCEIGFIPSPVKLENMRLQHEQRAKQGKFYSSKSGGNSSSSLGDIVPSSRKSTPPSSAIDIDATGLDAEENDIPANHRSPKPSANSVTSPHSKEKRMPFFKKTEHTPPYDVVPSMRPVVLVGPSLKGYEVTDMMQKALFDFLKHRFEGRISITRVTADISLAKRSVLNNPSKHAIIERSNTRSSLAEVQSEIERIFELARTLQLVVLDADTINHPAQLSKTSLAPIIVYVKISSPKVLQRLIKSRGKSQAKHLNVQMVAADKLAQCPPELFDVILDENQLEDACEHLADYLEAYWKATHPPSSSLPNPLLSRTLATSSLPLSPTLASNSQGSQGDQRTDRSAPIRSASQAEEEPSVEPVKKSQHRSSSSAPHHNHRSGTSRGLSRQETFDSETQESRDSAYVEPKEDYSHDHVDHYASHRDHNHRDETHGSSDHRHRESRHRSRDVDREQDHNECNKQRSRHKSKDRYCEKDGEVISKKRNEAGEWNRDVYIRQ
L-type calcium channel alpha-1c/beta-2/alpha2delta-1, sequence (Q13936 whole entry): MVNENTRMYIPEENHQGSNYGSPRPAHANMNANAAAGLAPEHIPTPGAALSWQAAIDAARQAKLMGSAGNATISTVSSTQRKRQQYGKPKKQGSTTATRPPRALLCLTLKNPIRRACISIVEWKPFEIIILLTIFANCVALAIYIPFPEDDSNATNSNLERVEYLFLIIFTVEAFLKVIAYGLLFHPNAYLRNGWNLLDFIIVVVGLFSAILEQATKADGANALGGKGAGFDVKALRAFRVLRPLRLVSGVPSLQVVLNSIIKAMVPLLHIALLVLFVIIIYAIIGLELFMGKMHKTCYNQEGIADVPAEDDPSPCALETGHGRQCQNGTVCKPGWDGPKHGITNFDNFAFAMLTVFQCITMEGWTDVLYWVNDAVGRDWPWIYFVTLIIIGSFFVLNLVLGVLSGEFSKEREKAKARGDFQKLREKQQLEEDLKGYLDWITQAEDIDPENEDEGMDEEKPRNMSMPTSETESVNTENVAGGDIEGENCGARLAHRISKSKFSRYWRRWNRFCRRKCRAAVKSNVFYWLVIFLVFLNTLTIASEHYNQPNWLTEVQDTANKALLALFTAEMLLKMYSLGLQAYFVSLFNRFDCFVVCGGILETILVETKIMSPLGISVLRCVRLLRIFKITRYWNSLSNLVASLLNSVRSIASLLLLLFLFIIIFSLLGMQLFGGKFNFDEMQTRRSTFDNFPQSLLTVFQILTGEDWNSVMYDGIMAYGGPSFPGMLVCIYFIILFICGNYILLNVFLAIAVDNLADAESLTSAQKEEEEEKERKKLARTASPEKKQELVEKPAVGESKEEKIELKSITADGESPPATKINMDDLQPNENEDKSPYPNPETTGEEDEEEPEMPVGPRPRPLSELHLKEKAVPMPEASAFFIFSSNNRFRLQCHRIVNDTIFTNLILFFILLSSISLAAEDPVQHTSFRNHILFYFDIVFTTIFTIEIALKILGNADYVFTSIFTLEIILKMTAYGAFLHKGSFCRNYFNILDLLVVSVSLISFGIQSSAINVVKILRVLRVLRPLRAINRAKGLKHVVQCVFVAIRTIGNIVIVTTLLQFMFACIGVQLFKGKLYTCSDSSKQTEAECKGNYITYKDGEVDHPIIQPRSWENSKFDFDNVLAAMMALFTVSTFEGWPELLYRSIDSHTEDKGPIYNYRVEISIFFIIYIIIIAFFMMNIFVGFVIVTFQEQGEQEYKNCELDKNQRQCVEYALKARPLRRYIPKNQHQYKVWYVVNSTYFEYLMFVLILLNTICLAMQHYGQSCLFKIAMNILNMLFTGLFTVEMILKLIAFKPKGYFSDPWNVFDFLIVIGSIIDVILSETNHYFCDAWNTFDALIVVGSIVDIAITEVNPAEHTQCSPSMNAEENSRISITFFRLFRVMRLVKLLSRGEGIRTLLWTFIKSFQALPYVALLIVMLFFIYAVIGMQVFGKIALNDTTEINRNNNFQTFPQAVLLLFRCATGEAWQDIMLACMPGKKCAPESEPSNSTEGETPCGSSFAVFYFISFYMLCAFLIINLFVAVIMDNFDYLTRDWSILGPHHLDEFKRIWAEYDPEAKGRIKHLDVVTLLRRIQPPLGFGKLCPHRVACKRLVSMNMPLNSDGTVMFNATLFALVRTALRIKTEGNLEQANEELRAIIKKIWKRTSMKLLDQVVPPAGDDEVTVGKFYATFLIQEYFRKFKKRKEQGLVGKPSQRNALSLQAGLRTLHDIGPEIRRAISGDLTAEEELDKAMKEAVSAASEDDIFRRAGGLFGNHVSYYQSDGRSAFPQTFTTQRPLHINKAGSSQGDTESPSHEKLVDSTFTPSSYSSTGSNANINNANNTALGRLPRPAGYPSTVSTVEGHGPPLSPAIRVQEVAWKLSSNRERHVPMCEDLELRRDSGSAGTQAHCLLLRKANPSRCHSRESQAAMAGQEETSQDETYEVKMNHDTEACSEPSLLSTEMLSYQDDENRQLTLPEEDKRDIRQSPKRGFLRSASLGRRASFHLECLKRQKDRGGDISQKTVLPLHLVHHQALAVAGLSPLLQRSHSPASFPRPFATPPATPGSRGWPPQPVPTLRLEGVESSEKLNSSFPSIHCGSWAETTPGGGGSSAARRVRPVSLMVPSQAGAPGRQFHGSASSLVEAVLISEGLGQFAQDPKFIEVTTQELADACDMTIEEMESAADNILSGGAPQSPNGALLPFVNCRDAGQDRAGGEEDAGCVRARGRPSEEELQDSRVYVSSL
Voltage-gated inwardly rectifying potassium channel KCNH2, sequence (Q12809 whole entry): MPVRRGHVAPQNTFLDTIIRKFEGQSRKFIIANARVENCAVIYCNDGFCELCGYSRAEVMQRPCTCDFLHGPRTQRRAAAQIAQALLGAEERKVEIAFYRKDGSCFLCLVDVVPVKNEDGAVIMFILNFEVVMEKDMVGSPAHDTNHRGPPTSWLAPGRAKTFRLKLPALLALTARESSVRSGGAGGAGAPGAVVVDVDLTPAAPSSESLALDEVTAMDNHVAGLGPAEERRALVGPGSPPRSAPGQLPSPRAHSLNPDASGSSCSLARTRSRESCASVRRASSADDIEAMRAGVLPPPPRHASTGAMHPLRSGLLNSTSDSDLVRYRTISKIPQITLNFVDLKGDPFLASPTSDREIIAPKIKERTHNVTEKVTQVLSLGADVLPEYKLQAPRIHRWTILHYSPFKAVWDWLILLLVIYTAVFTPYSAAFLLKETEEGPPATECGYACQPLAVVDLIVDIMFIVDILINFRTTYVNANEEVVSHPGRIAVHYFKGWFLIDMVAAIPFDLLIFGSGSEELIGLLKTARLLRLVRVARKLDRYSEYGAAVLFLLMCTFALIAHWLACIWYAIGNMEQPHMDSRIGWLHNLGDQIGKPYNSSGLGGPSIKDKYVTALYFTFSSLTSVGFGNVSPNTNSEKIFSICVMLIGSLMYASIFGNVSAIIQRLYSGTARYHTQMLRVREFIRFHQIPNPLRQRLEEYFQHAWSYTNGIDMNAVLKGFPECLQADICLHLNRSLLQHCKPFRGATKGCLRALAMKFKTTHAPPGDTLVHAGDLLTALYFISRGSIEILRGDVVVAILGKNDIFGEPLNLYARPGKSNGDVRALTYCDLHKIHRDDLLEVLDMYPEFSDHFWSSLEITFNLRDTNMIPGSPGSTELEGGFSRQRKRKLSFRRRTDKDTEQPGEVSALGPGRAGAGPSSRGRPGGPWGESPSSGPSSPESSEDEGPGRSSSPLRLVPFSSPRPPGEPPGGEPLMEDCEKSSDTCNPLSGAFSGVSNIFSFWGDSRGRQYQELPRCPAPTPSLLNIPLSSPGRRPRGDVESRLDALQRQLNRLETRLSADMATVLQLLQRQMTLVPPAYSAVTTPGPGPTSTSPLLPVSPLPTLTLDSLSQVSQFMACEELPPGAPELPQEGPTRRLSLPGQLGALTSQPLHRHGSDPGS

Cc1ccc(S(=O)(=O)Nc2cc(C(=O)NCc3ccc(C)nc3)ccc2C)cc1
Activity [1]: Active | Activity [2]: Active | Cmax [3]: 2740 ng/mL | Activity [4]: Non-Toxic | inhibition [5]: Active | half-life [6]: 95 min | Activity [7]: 73.88% | Activity [8]: Non-Toxic | IC50 [9]: 30 nM | Ratio IC50 [10]: 2.48 | IC50 [11]: > 30000 nM | MTD at 336 h [12]: > 60 mg/kg | IC50 [13]: 9 nM | selectivity ratio [14]: 4 | Activity [15]: Active | IC50 [16]: 14 nM | clearance [17]: 61.5 mL/min/kg | Activity [18]: 48.8% | IC50 [19]: 77 nM | IC50 [20]: > 10000 nM | IC50 [21]: 32 nM | inhibition in vivo at 5 mg/kg [22]: 37.4% | Activity [23]: 24.79% | IC50 [24]: 4 nM | Activity [25]: Non-Toxic | Activity [26]: 3.5% | Activity [27]: 37.88% | IC50 [28]: 3 nM | IC50 [29]: 8 nM | Activity [30]: 5.08% | Activity [31]: Active | half-life [32]: 2.3 min | AUC(0-t) [33]: 534 ng·h/mL | half-life [34]: 26 min | Activity [35]: 26.3% | IC50 [36]: 2 nM | Activity [37]: 9.5%
